Test results taken from paper PMC5713474, “Green route to synthesis of valuable chemical 6-hydroxynicotine from nicotine in tobacco wastes using genetically engineered Agrobacterium tumefaciens S33” (Biotechnology for Biofuels, 2017).

Tested on: T1, Hno (6-hydroxynicotine oxidase), recombinant His-tagged
T1 construct: N-terminal His tag (pETDuet-1), E. coli BL21 (DE3); FAD-containing; about 50 kDa on SDS-PAGE
Experiment: UV-visible spectrophotometry at […] nm (6-hydroxypseudooxynicotine formation)
Format: biochemical, Agrobacterium tumefaciens
Details: 37 °C, pH 9.2, 100 mM glycine-NaOH buffer; O2 as electron acceptor; read-out: apparent K m

CN1CCC[C@H]1c1ccc(O)nc1 [6-hydroxynicotine]
Km: 67 ± 1 µM
